Experimental data as given in US10766885B1, “Silibinin 3,3′-thiodipropionic acid ester with hepatoprotective activity and a method of preparing the same” (SHAANXI UNIVERSITY OF SCIENCE AND TECHNOLOGY, priority 2020, dated 2020).

Assays:
[1] = system: Mice with Alcoholic Liver Injury; experiment: Protective effect on alcoholic liver injury in mice (serum ALT, AST, TG); format: in vivo; conditions: ethanol 3 g/kg/day, after 25 days
Experimental: The compound of formula (I) was prepared by the method of Example 7. In order to study its protective effect on alcoholic liver injury in mice, the following animal model was designed.
Three-week-old 30-35 g SPF male mice were randomly divided into normal control group, model group, low-dose group, high-dose group and tiopronin positive control group after adaptive feeding for 3 days. The normal control group and model group were fed with basic feed every day; low dose group and high dose group were fed with basic diet every day and were given the compound of formula (I) of 10 mg/kg/day and 50 mg/kg/day, respectively; tiopronin positive control group was fed with basic feed and 50 mg/kg/day tiopronin. Ethanol 3 g/kg/day (0.01 mL/g) was given to the model group, low dose group, high dose group and tiopronin positive control group. The normal control group was given distilled water of the same volume. After 25 days, fasting for 2 hours after the last administration, glutamic pyruvic transaminase (ALT), glutamic oxaloacetic transaminase (AST) and triglyceride (TG) were measured in serum by decapitation.

[2] = DPPH radical scavenging activity assay; format: biochemical; conditions: for DPPH Clearance rate: n = 3
Excerpt: 2,2-Diphenyl-1-picryl hydrazyl (DPPH) is an organic compound composed of a stable organic radical. In the DPPH molecule, due to the presence of multiple electron-withdrawing —NO2 and large π bonds of the benzene ring, nitrogen free radical is stabilized. Its methanol solution is purple and has a maximum absorption peak at 517 nm. After the addition of an antioxidant, DPPH captures an electron to be paired with the free electron, and the purple fades and turns into a yellow substance. The absorption at 517 nm disappears, and the degree of fading is quantitatively related to the number of electrons it captures. Based on this principle, a spectrophotometer is used to detect the change of the absorbance of the DPPH radical and the sample solution, and the ability of the sample to provide hydrogen atoms and scavenge free radicals can be measured.
Preparation of DPPH solution: measuring exact amount of 2,2-diphenyl-1-picryl hydrazyl (DPPH) and dissolving in toluene to prepare a 0.2 mmol/L DPPH solution, stored at 0° C. in dark.
Preparation of test solution: Vc (vitamin C, positive control), compound of formula (I) (sample), silibinin (control) and 3,3′-thiodipropionic acid (control). The sample solution was subjected to gradient dilution with toluene, and three sets of controls were separately dissolved in a test tube with a certain amount of toluene to prepare the same concentration gradient as the sample.
Sample liquid absorbance measurement: Take 2 mL of sample solution (Table 2 Vc, B, C), add 2 mL of DPPH solution with concentration of 2×10^−4 mol/L, mix and react in the dark at room temperature for 30 min, adjust to zero with toluene, and measure at 517 nm. The absorbance Ai was simultaneously measured for the absorbance Aj of 2 mL of toluene mixed with 2 mL of the sample solution and the absorbance Ao of 2 mL of DPPH solution mixed with 2 mL of toluene (the experimental results are shown in Table 3).
Clearance calculation: clearance rate (%)=[1−(Ai−Aj)/Ao]*100%

Structure (SMILES)	ALT ([1]; 50 mg/kg/day)	AST ([1]; 50 mg/kg/day)	TG ([1]; 50 mg/kg/day)	DPPH Clearance rate ([2]; 1.76 ppm)	DPPH Clearance rate ([2]; 8.80 ppm)	DPPH Clearance rate ([2]; 21.12 ppm)	DPPH Clearance rate ([2]; 42.24 ppm)	DPPH Clearance rate ([2]; 79.20 ppm)	DPPH Clearance rate ([2]; 112.64 ppm)	DPPH Clearance rate ([2]; 281.60 ppm)	DPPH Clearance rate ([2]; 492.80 ppm)	DPPH Clearance rate ([2]; 792.00 ppm)	DPPH Clearance rate ([2]; 915.20 ppm)	ALT ([1]; 10 mg/kg/day)	AST ([1]; 10 mg/kg/day)	TG ([1]; 10 mg/kg/day)	scavenging ability compared with the positive control Vc group [2]	scavenging ability to scavenge DPPH free radicals compared with silibinin (B) and 3,3′-thiodipropionic acid (C) alone ([2]; at the same concentration)	highest scavenging rate of DPPH radical ([2]; in the determined concentration range)
CC(S)C(=O)NCC(=O)O (stereo not shown) [Tiopronin, tiopronin]	63.45 ± 9.53 U/L	143.32 ± 15.46 U/L	1.336 ± 0.62 mmol/L																
O=C(O)CCSCCC(=O)O [C, 3,3′-Thiodipropionic acid]				6.85%	8.38%	17.13%	22.38%	39.55%	43.58%	52.23%	59.36%	64.55%	68.22%						
O=C1O[C@H]([C@@H](O)CO)C(O)=C1O [Vc, vitamin C]				23.16%	33.47%	79.63%	89.55%	97.42%	97.53%	98.29%	99.06%	99.10%	99.28%						
COc1cc(C2Oc3cc([C@H]4Oc5cc(O)cc(O)c5C(=O)[C@@H]4O)ccc3OC2COC(=O)CCSCCC(=O)OCC2Oc3ccc([C@H]4Oc5cc(O)cc(O)c5C(=O)[C@@H]4O)cc3OC2c2ccc(O)c(OC)c2)ccc1O (stereo partly drawn) [Compound of Formula (I), bis((3-(4-hydroxy-3-methoxyphenyl)-6-((2R,3R)-3,5,7-trihydroxy-4-oxochroman-2-yl)-2,3-dihydrobenzo[b][1,4]dioxin-2-yl)methyl) 3,3′-thiodipropionate]	56.17 ± 3.45 U/L	132.56 ± 7.21 U/L	0.877 ± 0.36 mmol/L	13.11%	20.80%	34.16%	44.12%	68.42%	75.23%	81.21%	84.70%	87.06%	89.96%	60.88 ± 9.75 U/L	138.53 ± 17.85 U/L	0.973 ± 0.25 mmol/L	slightly weaker	better	89.96%
COc1cc(C2Oc3cc([C@H]4Oc5cc(O)cc(O)c5C(=O)[C@@H]4O)ccc3OC2CO)ccc1O (stereo partly shown) [B, Silibinin]				8.42%	9.16%	22.43%	27.10%	39.53%	45.87%	60.25%	65.88%	69.85%	72.76%						
